“Also recorded” adds a separate entry of the source. Where a SMILES comes first, the peptide text is derived from it. The star is where a group is joined. Cbz = O=C(OCc1ccccc1)*; CH2F = FC*
Key:
cathepsin L = experiment: Generation of dynamin p40 fragment in LPS-treated cultured podocytes (Western blot); assay type: cell-based, mouse; conditions: LPS-treated podocytes expressing dynWT
Description: Next, it was examined whether cathepsin L could process dynamin in vivo, and whether this processing required GTP binding by dynamin. To this end, cultured podocytes were infected with adenoviruses expressing dynWT as well as different dynamin mutants. Infected podocytes were subsequently treated with LPS. LPS treatment increases cathepsin L presence and the activity in the cytosol (FIG. 3), and thus is expected to induce generation of the 40 kD proteolytic fragment. Respective cytosols were probed using the GTPase antibodies in order to detect N-terminal 40 kD proteolytic fragment. Expression of dynWT in podocytes treated with LPS identified proteolytic fragments that traveled with the same mobility as fragments observed in vitro. […] Furthermore, significant amount of p40 was present in cells expressing dynR725A prior to LPS treatment. […] Given complete protection of cathepsin L cleavage by GTPγS, it was reasoned that LPS treatment was somehow inducing dynR725A self-assembly, which in turn was protecting dynR725A from cathepsin L cleavage. This in turn would explain ability of dynR725A to counteract LPS and PAN treatment (FIG. 1D). […] Biochemical difference between dynWT, dynK694A and dynR725A is that only dynR725A is impaired in the rate of GTP-hydrolysis of assembled dynamin. This is important because GTP-hydrolysis drives disassemble of dynamin. Thus, while all three dynamins are predicted to self-assemble by LPS treatment, only dynR725A will stay assembled due to its inability to hydrolyze GTP. Once assembled dynWT and dynK694A hydrolyze GTP they will fall apart and thus become accessible for cathepsin L cleavage.
To explore CatL-mediated dynamin cleavage in vivo, cultured podocytes were infected with adenoviruses encoding different dynamin mutants and subsequently treated with LPS (FIG. 19G). […] To confirm the identity of the cleavage site, the ELSGGA (SEQ ID NO.29) sequence was mutated to EQSVGA (SEQ ID NO.31) (for simplicity, the mutant is subsequently referred to as dynL356Q). […] Finally, a GTPase-defective dynamin mutant was examined. Dynamin carrying a mutation in its […] (dynR725A) oligomerizes, but is impaired in assembly-stimulated GTP-hydrolysis. DynR725A is therefore predicted to live longer in the assembled state.
Podocytes were grown under non-permissive conditions to 70% confluence. Cells were washed twice with 1×PBS and infected with 1.2 ml of serum-free DMEM media containing 100 μl transactivator virus, 100 μl virus expressing dyn1 or dyn2. After 2 h of infection at 37° C., media containing virus was replaced with full DMEM. If cells were treated with LPS or PAN, 50 μg/ml of LPS or 50 μg/ml PAN was added at this point. 18-24 h post-infection, cells were detached using trypsin and processed either for subcellular fractionation or tested in the motility assays as described in (Reiser et al., J Biol Chem 279, 34827-34832 (2004)). When stated, 20 μM of Z-FF-FMK CatL specific inhibitor (Calbiochem, San Diego, Calif.) was added simultaneously with addition of LPS.

CatL = experiment: Cathepsin activity in LPS-treated podocytes with fluorogenic substrate CV-(FR)2; assay type: cell-based, mouse; conditions: after LPS administration
Description: (§1) Finally, it was examined whether CatL can be enzymatically active in the cytosol. Subcellular sites of CatL and CatB activity were visualized by a fluorogenic substrate, CV-(FR)2, which emits light upon cleavage by CatL. In untreated podocytes, protease activity was low and confined to perinuclear lysosomes (FIG. 17F).

CatB = biological target: T1, CatB (Mus musculus, UniProt P10605); experiment: Cathepsin activity in podocytes with fluorogenic substrate CV-(FR)2, CatB; assay type: cell-based
T1 construct: endogenous in cells; host or cells: cultured mouse podocytes
Description: as §1

LPS-induced proteinuria = LPS-induced proteinuria in mice treated with inhibitors, albuminuria by gel quantification; assay type: in vivo, mouse; conditions: FIG. 29A
Description: Proteinuria was induced in male B6 mice (n=5 per group) by LPS injection. The mice were injected the mice with 250 μg ultrapure LPS (InvivoGen) intraperitoneally (i.p.) and started treatment with 200 μg cathepsin L inhibitor VI (Calbiochem) 30 min after disease induction. The LPS and inhibitor injections were repeated at 24 h and the mice were sacrificed at 48 h.
To quantify the level of proteinuria, urine was diluted with double-distilled water, boiled the diluted urine in sample buffer and analyzed the samples by NuPAGE (Invitrogen) followed by Coomassie blue staining BSA standards (from 0.125 to 2.0 μg) were run on the same gel and were used to identify and quantify urinary albumin bands. The albumin bands were quantified with ImageJ software (NIH) and determined the creatinine abundance from the same urine samples with a commercial kit (Cayman Chemical) according to the manufacturer's protocol.

[1] = test system: CatL-mediated degradation of synaptopodin; experiment: Western blot of isolated glomeruli, LPS-induced degradation of synaptopodin and RhoA; assay type: in vivo, mouse; conditions: FIG. 29B
Description: FIG. 29A: SDS-PAGE analysis of urines from control and LPS-injected mice (top). Quantitative analysis of albuminuria (bottom). FIG. 29B: Western blot analysis of isolated glomeruli showing that LPS causes the degradation of endogenous synaptopodin and RhoA.

T1 sequence (P10605 80-333): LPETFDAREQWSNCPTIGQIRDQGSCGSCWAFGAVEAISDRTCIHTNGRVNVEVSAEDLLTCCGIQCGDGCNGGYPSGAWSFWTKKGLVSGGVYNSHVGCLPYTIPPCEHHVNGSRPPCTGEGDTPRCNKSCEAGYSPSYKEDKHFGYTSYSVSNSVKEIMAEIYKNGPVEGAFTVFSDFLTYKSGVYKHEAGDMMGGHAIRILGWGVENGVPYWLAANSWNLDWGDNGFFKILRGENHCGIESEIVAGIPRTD

Row | inhibition of CatB, in words (CatB) | Structure (SMILES) | dynamin cleavage / p40 generation with inhibitor, in words (cathepsin L) | extralysosomal cathepsin activity, in words (CatL) | LPS-induced proteinuria (albuminuria), in words (LPS-induced proteinuria) | LPS-induced degradation of synaptopodin and RhoA, in words [1]
1 | does not inhibit CatB | O=C(NC(Cc1ccccc1)C(=O)NC(Cc1ccccc1)C(=O)CF)OCc1ccccc1 (stereo not drawn) [Z-FF-FMK, Z-Phe-Phe-fluoromethyl ketone, reference compound] (Cbz-Phe-Phe-CH2F; configuration not given here) | resulted specifically in the loss of p40; also recorded: inhibited | vast majority of extralysosomal cathepsin activity after LPS administration was sensitive | – | –
2 | – | CC(C)C[C@H](NC(=O)[C@H]1O[C@@H]1C(=O)O)C(=O)NCCCCN=C(N)N [E64] | cleavage could be blocked | – | ameliorate LPS-induced proteinuria | block the LPS-induced degradation of synaptopodin and RhoA

Reference: patent publication US9144594B2, “Cathepsin L mediated diseases and associated methods and products” (University of Miami, priority 2005, dated 2015)
